Values joined by “and” are separate entries in the source; they are usually repeats but may differ in a detail not shown here. Equal entries are not always repeated.
Tests used:
TOV-21G (ovarian) = experiment: Cancer cell proliferation assay (acid phosphatase); type: cell-based; details: Homo sapiens, TOV21G, 72 h, Table 6A; 72 hrs; read-out: TOV-21G IC50
Description: Measurement of the inhibitive effect of compounds on cancer cell proliferation was performed. Various cell lines were tested, including HCT-116 (colon); A549 (lung); TOV-21G (ovarian); Calu-6 (lung); and LS-174T (colon); and cell lines H1703 (Lung) and SKOV3 (ovarian); JEKO-1 (lymophoma); TOV-112D (ovarian) are tested. The assays were performed under the following conditions: Cells are harvested at a concentration of 4×10^4 cells/ml in media. Volumes of 100 μl/well of these cell suspensions were added to a 96 well plate using a multichannel pipette. Plates were gently agitated to ensure an even dispersion of cells over a given plate. Cells were then incubated at 37° C., 5% CO2 overnight. Following this, 100 μl of compound at varying concentrations was added to wells in triplicate. Control wells are those with 100 μl media containing 0.33% DMSO added to cell suspension (this is the equivalent volume of DMSO found in the highest concentration of drug). Plates were then gently agitated, as above, and incubated at 37° C., 5% CO2 for 72 hrs (control wells have reached 80-90% confluency). Assessment of cell proliferation in the presence of the compound was determined by the acid phosphatase assay.
Following the incubation period of 72 hrs, media was removed from the plates. Each well on the plate was washed twice with 100 μl PBS. This was then removed and 100 μl of freshly prepared phosphatase substrate (10 mM p-nitrophenol phosphate in 0.1M sodium acetate, 0.1% triton X-100, pH 5.5) was added to each well. The plates were then incubated in the dark at 37° C. for 2 hours. Colour development was monitored during this time. The enzymatic reaction was stopped by the addition of 50 μl of 1N NaOH. The plate was read in a dual beam plate reader at 405 nm with a reference wavelength of 620 nm. The absorbance reading of the latter is subtracted from the former, and the effect of the drug on cell proliferation was then measured as a percentage against the control cells (DMSO), which is taken as 0% inhibition.

Parkin ligase = target: T1, Parkin ligase (Homo sapiens, UniProt O60260); experiment: Activity-Based Probe Assay using Ubiquitin vinyl sulfone probe (TR-FRET); type: biochemical; details: heat activated Parkin, HA-Ub-VS probe, activation EC50; read-out: Probe Assay EC50 (μM) [Example 2]
T1 sequence (O60260 1-465): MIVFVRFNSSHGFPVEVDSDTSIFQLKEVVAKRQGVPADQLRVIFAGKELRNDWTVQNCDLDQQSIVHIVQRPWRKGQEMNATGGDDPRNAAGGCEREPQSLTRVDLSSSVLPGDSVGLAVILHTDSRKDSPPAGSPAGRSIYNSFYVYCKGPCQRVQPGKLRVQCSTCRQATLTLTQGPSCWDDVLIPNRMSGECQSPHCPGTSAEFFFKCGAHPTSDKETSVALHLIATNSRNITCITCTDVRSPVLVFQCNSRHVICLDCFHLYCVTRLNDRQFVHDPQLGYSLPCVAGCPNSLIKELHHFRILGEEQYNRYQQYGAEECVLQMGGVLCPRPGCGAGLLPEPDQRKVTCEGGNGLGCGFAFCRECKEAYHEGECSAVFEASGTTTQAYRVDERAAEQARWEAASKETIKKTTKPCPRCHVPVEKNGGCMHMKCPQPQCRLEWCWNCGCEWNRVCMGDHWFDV
Description: An Ubiquitin vinyl sulfone probe can be used that irreversibly binds to the active site cysteine of Parkin ligase. Covalent attachment of the probe to the Parkin can be monitored by TR-FRET. Candidate activator compounds can be identified by increasing the activity of Parkin ligase due to an increase in TR-FRET signal. Screening for activating compounds can be distinguished from the controls as follows: 100% activation signal=Heat activated Parkin+100 nM control activator in DMSO. 0% activation signal=Heat activated Parkin+DMSO only. Parkin activators can be identified by an increase of the 0% activation signal TR-FRET signal. Assay Conditions: Materials: • Assay Plate: White 384 well plate (Corning 3572) • Enzyme: Parkin-His tagged 203 μM (10.5 mg/ml) • Probe: Ubiquitin vinyl-sulfone (HA-Ub-VS Boston Biochem U-212) • DMSO: DMSO (Sigma cat #D4540-100ML) • Reaction Buffer: 50 mM HEPES (pH 8.5), 150 mM NaCl, 0.01% Tween 20, 0.1% BSA • Detection Buffer: 50 mM HEPES (pH 8.5), 150 mM NaCl, 0.01% Tween 20, 0.1% BSA, 800 mM KF • Detection Reagent A: 2.6 nM Anti-6HIS-Eu cryptate and 40 nM Anti-HA-XL665 in detection buffer • Eu cryptate: Anti-6HIS-Eu cryptate (CisBio 61HISKLA) • XL665: Anti-HA-XL665 (CisBio 610HAXLA) Enzyme Reaction (15 Min Pre Incubation Parkin with Activator Only) • Parkin: 40 nM • HA-Ub-VS Probe: 70 nM • Activator/DMSO: 2× Activator/2% DMSO Reaction time: 60 minutes Temperature: 22° C. Total volume: 10 μl reaction Detection Reaction Take […] of Enzyme Reaction above and add 10 μl detection Reagent A under the following conditions: • Reaction time: 60 minutes • Temperature: 22° C. • Total volume: 20 μl
Assay procedure (Using HP D-300 compound dispenser and Bravo for the operation):
1) Heat activate Parkin in reaction buffer (500 μl/1.5 ml tube: Eppendorf Thermomixer 5 minutes, 400 rpm at 58° C. and put on ice until needed).
2) Load assay plate wells with 4.8 μl 84.5 nM Parkin in reaction buffer by use of Bravo.
3) Deliver 0.2 μl 200× activator candidates in DMSO by use of HP D-300 compound dispenser. Highest 200× concentration=[…] and then twofold dilutions.
4) Spin 1000 rpm, 2 minutes, at room temp.
5) Incubate plate for 15 minutes at room temp.
6) Add 5 μl 140 nM HA-Ub-VS Probe in reaction buffer by use of Bravo.
7) Spin 1000 rpm, 2 minutes, at room temp.
8) Incubate plate for 60 minutes at room temp.
9) Add 10 μl 2.6 nM Anti-6HIS-Eu cryptate and 40 nM […] in detection buffer.
10) Spin 1000 rpm, 2 minutes, at room temp.
11) Incubate plate for 60 minutes at room temp.
12) Read plates on Perkin Elmer Envision instrument with the following parameters:
LANCE dual laser protocol loaded into the Envision® software
Top Mirror: LANCE/DELFIA Duel/Bias (Bar code 446)
Emission Filter: APC 665 EM (Bar code 205)
2nd Emission Filter: Europium 615 EM (Bar code 203)
Read 655 nm (channel 1) and 615 nm (channel 2) wavelengths on Envision®
Data Analysis: The Data can be read in CSV files. There are two tables in those CSV files, which are the values of 655 nm (channel 1) and 615 nm (channel 2) wavelengths respectively. The data is converted to an HTRF Ratio=(Channel 1/Channel 2)*10,000
The average of all the 0 μM controls (DMSO only)=BKGD (Background—0% activation). Subtract BKGD from each HTRF Ratio value=HTRF−BKGD. The average of all the […] 100 nM control activator in DMSO controls=Max (100% activation). The following equation is then used to calculate % Activation for each well/candidate as follows: % Activation=(HTRF−BKGD/Max)*100.
Graphpad Prism was used with Transform X values: X=Log(X) and nonlinear regression (dose-response-stimulation): Log(agonist) vs Response−variable slope (four parameters) with constrains set to Bottom=0 and Top=100.
The Activity-Based Probe Assay was performed with various compounds in Tables 1, 2, 3A and 3B.

SMILES | IC50 (TOV-21G (ovarian)) | EC50 (Parkin ligase)
Cc1ccccc1C(=O)Nc1nc(NC(=O)[C@@H]2C[C@H](F)CN2)nn1-c1ccccc1 [Compound 3] | 2400 nM | 16 µM and > 100 µM
Cc1ccccc1C(=O)Nc1nc(-c2cn(C)cn2)nn1-c1ccccc1 [Compound 125] |  | > 100 µM
Cc1ccccc1C(=O)Nc1nc(-c2cccc[n+]2[O-])nn1-c1ccccc1 [Compound 130] |  | 5 µM
Cc1ccccc1C(=O)Nc1nc(-c2cscn2)nn1-c1ccccc1 [Compound 135] |  | > 100 µM
Cc1ccccc1C(=O)Nc1nc(-c2ncccc2F)nn1-c1ccccc1 [Compound 136] |  | > 100 µM
c1ccc(CNc2nc(NCc3ccccc3)n(-c3ccccc3)n2)cc1 [Compound 138] |  | > 100 µM
Cc1ccccc1C(=O)Nc1nc(-c2cocn2)nn1-c1ccccc1 [Compound 140] |  | > 100 µM
Cc1ccccc1C(=O)Nc1nc(-c2ncccc2C)nn1-c1ccc(C(F)(F)F)cc1 [Compound 141] |  | 1 µM
Cc1ccccc1C(=O)Nc1nc(-c2ncccc2C)nn1-c1ccc(Cl)cc1 [Compound 142] |  | 0.3 µM
c1ccc(CCNc2nc(NCCc3ccccc3)n(-c3ccccc3)n2)cc1 [Compound 143] |  | > 100 µM
c1ccc(-n2nc(NCc3ccccn3)nc2NCc2ccccn2)cc1 [Compound 144] |  | > 100 µM
c1ccc(-n2nc(NCCc3ccccn3)nc2NCCc2ccccn2)cc1 [Compound 145] |  | > 100 µM
Cn1cnc(-c2nc(N)n(-c3ccccc3)n2)c1 [Compound 147] |  | > 100 µM
Cc1ccccc1C(=O)N(C(=O)c1ccccc1)c1nc(N)n(-c2ccccc2)n1 [Compound 148] |  | > 100 µM

The remaining lines, values ahead:

IC50 (TOV-21G (ovarian)) | EC50 (Parkin ligase) | SMILES
 | 1 µM | Cc1ccccc1C(=O)Nc1nc(NCCc2ccccc2)nn1-c1ccc(C(F)(F)F)cc1 [Compound 103]
 | 1 µM | Cc1ccccc1C(=O)Nc1nc(NCc2ccccc2)nn1-c1ccc(OC(F)(F)F)cc1 [Compound 105]
 | > 100 µM | Cc1ccccc1C(=O)Nc1nc(NCCc2ccccc2)nn1-c1ccc(OC(F)(F)F)cc1 [Compound 106]
 | 1 µM | COc1ccc(CNc2nc(NC(=O)c3ccccc3C)n(-c3ccc(OC(F)(F)F)cc3)n2)cc1 [Compound 107]
 | 1 µM | Cc1ccccc1C(=O)Nc1nc(NCCc2ccccc2)nn1-c1ccc(Cl)cc1 [Compound 109]
 | 2 µM | COc1cccc(CNc2nc(NC(=O)c3ccccc3C)n(-c3ccc(OC(F)(F)F)cc3)n2)c1 [Compound 110]
 | 2 µM | COc1ccccc1CNc1nc(NC(=O)c2ccccc2C)n(-c2ccc(OC(F)(F)F)cc2)n1 [Compound 111]
 | 1 µM | Cc1ccccc1C(=O)Nc1nc(NCc2cccc(Cl)c2)nn1-c1ccc(OC(F)(F)F)cc1 [Compound 112]
 | 0.8 µM | Cc1ccccc1C(=O)Nc1nc(NCc2ccc(Cl)cc2)nn1-c1ccc(OC(F)(F)F)cc1 [Compound 113]
 | 2 µM | Cc1ccccc1C(=O)Nc1nc(N[C@H](C)c2ccccc2)nn1-c1ccccc1 [Compound 114]
 | 3 µM | Cc1ccccc1C(=O)Nc1nc(N[C@@H](C)c2ccccc2)nn1-c1ccccc1 [Compound 115]
 | 2 µM | Cc1ccccc1C(=O)Nc1nc(N[C@@H](C)c2ccccc2)nn1-c1ccc(OC(F)(F)F)cc1 [Compound 117]
 | 1 µM | Cc1ccccc1C(=O)Nc1nc(N[C@H](C)c2ccccc2)nn1-c1ccc(OC(F)(F)F)cc1 [Compound 118]
 | 2 µM | Cc1ccccc1C(=O)Nc1nc(NC(=O)c2c(F)cccc2F)nn1-c1ccccc1 [Compound 119]
 | 1 µM | Cc1ccccc1C(=O)Nc1nc(N[C@@H](C)c2ccccc2)nn1-c1ccc(C(F)(F)F)cc1 [Compound 120]
 | 0.9 µM | Cc1ccccc1C(=O)Nc1nc(-c2ncccc2C)nn1-c1ccc(OC(F)(F)F)cc1 [Compound 139]

From US10889553B2, “Asymmetric triazole benzamide derivatives and the compositions and methods of treatment regarding the same” (NysnoBio Ireland DAC, priority 2017, dated 2021)
